This is an account of results in ChEMBL document CHEMBL4033742, “Novel 3-fluoro-6-methoxyquinoline derivatives as inhibitors of bacterial DNA gyrase and topoisomerase IV” (Bioorg Med Chem Lett, 2017).

pIC50: −log10 of the molar value. In brackets after ≈: the same amount, converted by molar mass.

Data set [1] in a line: Half life in rat at 2 mg/kg, iv. It is filed as ADME, organism-based. To be noted: in vivo.
The target in data set [2] is Voltage-gated inwardly rectifying potassium channel KCNH2 (Homo sapiens, UniProt Q12809). Briefly: Inhibition of human ERG.
A short description of data set [3]: Inhibition of Staphylococcus aureus DNA topoisomerase 4.
Data set [4] in a line: Fraction unbound in human plasma. The data set is classed as ADME, cell-free.
Data set [5] is described as follows: Volume of distribution at steady state in mouse at 10 mg/kg, iv. It is filed as ADME, organism-based. To be noted: in vivo, read-out: Vdss.
Data set [6] deals with Staphylococcus aureus. Briefly: Antibacterial activity against Staphylococcus aureus containing DNA gyrase D83N mutations. It is filed as functional.
Data set [7] concerns Staphylococcus aureus. As to the kind of experiment: Antibacterial activity against Staphylococcus aureus. The data set is classed as functional.
The nature of data set [8]: Fraction unbound in rat plasma. It is filed as ADME, cell-free.
Data set [9] is described as follows: Inhibition of Staphylococcus aureus DNA gyrase.
For data set [10], the system named is Staphylococcus aureus. Briefly: Antibacterial activity against Staphylococcus aureus containing DNA gyrase M121K mutations. The data set is classed as functional.
A short description of data set [11]: Clearance in rat at 2 mg/kg, iv. The data set is classed as ADME, organism-based. To be noted: in vivo.
Data set [12] has as its system Staphylococcus aureus. As to the kind of experiment: Antibacterial activity against fluoroquinolone-resistant Staphylococcus aureus infected in mouse neutropenic thigh model assessed as static dose required for bacterial stasis. It is filed as functional.
A short description of data set [13]: Half life in mouse at 10 mg/kg, iv. The data set is classed as ADME, organism-based. The following applies: in vivo.
Data set [14] in a line: Fraction unbound in mouse plasma. The data set is classed as ADME, cell-free.
Data set [15] relates to Staphylococcus aureus. As to the kind of experiment: Antibacterial activity against fluoroquinolone-sensitive Staphylococcus aureus 1146. It is filed as functional.
Another data set relates to Streptococcus pyogenes. As to the kind of experiment: Antibacterial activity against Streptococcus pyogenes. It is filed as functional.
Data set [16] relates to Staphylococcus aureus. Briefly: Antibacterial activity against fluoroquinolone-resistant Staphylococcus aureus 1095. It is filed as functional.
Data set [17] in a line: Volume of distribution at steady state in rat at 2 mg/kg, iv. The data set is classed as ADME, organism-based. To be noted: in vivo, read-out: Vdss.
A short description of data set [18]: Clearance in mouse at 10 mg/kg, iv. The data set is classed as ADME, organism-based. The following applies: in vivo.
The nature of data set [19]: Stability assessed as increase in metabolism rate under in-vitro conditions. It is filed as physicochemical.
Data set [20] has as its system Cavia porcellus. As to the kind of experiment: Cardiotoxicity in anesthetized guinea pig model assessed as prolongation of monophasic action potential duration at fCmax level. It is filed as toxicity.
A short description of data set [21]: Ratio of fAUC in fluoroquinolone-resistant Staphylococcus aureus infected mouse neutropenic thigh model to MIC for fluoroquinolone-resistant Staphylococcus aureus.
Data set [22] has as its system Cavia porcellus. As to the kind of experiment: Cardiotoxicity in anesthetized guinea pig model assessed as increase in cardiac alternans at fCmax level. The data set is classed as toxicity.
Data set [23] has as its system Cavia porcellus. As to the kind of experiment: fCmax in anesthetized guinea pig model. The data set is classed as ADME.
Data set [24] in a line: Cmax in human. The data set is classed as ADME.

Chain of Voltage-gated inwardly rectifying potassium channel KCNH2 (Q12809 whole entry): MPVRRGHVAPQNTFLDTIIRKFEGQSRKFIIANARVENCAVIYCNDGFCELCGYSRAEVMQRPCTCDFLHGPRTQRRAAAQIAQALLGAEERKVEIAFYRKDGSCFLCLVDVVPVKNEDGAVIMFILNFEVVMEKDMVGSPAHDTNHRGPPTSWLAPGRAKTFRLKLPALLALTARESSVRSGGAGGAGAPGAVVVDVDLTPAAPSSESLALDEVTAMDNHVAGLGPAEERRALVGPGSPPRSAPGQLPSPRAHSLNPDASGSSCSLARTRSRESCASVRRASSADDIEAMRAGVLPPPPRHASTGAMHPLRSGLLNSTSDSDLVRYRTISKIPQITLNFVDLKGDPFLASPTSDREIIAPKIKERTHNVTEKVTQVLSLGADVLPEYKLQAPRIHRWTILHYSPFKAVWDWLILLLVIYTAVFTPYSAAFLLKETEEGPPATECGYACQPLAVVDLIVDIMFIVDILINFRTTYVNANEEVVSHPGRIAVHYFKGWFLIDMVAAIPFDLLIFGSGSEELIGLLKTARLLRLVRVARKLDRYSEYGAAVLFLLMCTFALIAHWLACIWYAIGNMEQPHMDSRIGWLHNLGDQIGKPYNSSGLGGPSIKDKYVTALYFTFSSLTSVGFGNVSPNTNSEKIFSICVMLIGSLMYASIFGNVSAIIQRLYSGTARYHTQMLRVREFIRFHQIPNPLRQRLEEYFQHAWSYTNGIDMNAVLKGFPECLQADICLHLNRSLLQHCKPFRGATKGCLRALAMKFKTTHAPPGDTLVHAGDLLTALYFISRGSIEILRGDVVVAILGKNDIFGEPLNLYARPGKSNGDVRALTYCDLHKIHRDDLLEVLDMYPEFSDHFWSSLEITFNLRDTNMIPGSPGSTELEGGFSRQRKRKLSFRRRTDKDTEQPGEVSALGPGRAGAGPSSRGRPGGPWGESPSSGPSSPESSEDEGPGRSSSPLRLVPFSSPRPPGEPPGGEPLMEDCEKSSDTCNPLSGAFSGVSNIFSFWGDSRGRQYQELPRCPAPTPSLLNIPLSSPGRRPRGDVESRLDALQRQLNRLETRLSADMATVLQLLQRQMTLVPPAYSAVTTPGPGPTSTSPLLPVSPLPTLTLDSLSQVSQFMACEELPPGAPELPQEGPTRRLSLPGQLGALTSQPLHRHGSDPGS

Take `COc1ccc2ncc(F)c([C@@H](O)CC[C@@H]3CCN(C4CC(c5cc(F)ccc5F)C4)C[C@@H]3C(=O)O)c2n1` (some centres not stated): the half-life (as a rule, the time needed for the level to fall by half in the phase considered) in data set [1] is 40.2 min; in data set [13], 16.8 min. For the same compound, the pIC50 (usually −log10 of the IC50, conventionally taken in molar units) is 4.35 in [2], 5.29 in [3] and 5.84 in [9]. Further, the fraction unbound (commonly the share of the substance not bound to proteins or other matrix) in [4] is 0.036 to 0.037; in [8], 0.121 to 0.189; in data set [14], 0.131 to 0.242. The Vd in data set [5] came to 0.825 L/kg; in [17], 1.89 L/kg. Besides, the MIC (in general, the smallest concentration in the dilution series that meets the test's criterion for growth inhibition) with Staphylococcus aureus [6] is 2.5 µg/mL (≈ 4.72 µM); against Staphylococcus aureus [10], 2.3 µg/mL (≈ 4.34 µM); with Staphylococcus aureus [15], at most 0.0625 µg/mL; in the data set with Staphylococcus aureus [16] it was 0.088 µg/mL (≈ 0.166 µM). The results for the MIC90 in the data set with Staphylococcus aureus [7] and against Streptococcus pyogenes were 0.125 to 0.25 µg/mL (≈ 0.236 to 0.472 µM) and 0.5 to 1 µg/mL (≈ 0.944 to 1.89 µM), respectively. Moreover, the clearance (usually the volume of plasma or blood freed of the substance per unit of time) in [11] is 32.7 mL/min/kg; in [18], 34 mL/min/kg. Moreover, in the data set on Staphylococcus aureus [12], the Activity worked out at 80.7 mg/kg/day.

Turning to `COc1ccc2ncc(F)c([C@@H](O)CC[C@@H]3CCN(C4CC(c5cc(F)cc(F)c5F)C4)C[C@@H]3C(=O)O)c2c1` (some centres not stated), the pIC50 in [3] was 5.33; in data set [9], 5.81. Moreover, the MIC is 1 µg/mL (≈ 1.83 µM) with Staphylococcus aureus [6], 2 µg/mL (≈ 3.66 µM) against Staphylococcus aureus [10], at most 0.0625 µg/mL in the data set on Staphylococcus aureus [15] and at most 0.0625 µg/mL against Staphylococcus aureus [16]. In addition, the Stability entry in [19] is “Unstable”.

With `COc1ccc2ncc(F)c([C@@H](O)CC[C@@H]3CCN(C4CC(c5cc(F)ccc5F)C4)C[C@@H]3C(=O)O)c2c1` (some centres not stated), the half-life in [1] is 40.8 min; in data set [13], 63 min. Also, the negative-log IC50 (pIC50) is 4.07 in data set [2], 5.26 in [3] and 6.01 in [9]. The Activity result in the data set on Cavia porcellus [20] is “Non-Toxic”; in the data set on Cavia porcellus [22] it was “Non-Toxic”; in the data set on Staphylococcus aureus [12] it was 79.7 to 82.8 mg/kg/day. Further, the fraction unbound in data set [4] is 0.054; in data set [8], 0.197; in data set [14], 0.201. The Ratio in data set [21] is recorded as 39. The fCmax in the data set on Cavia porcellus [23] stood at 27.5 µM. The values for the Vd in [5] and in data set [17] were 1.24 L/kg and 1.82 L/kg, respectively. Moreover, the minimum inhibitory concentration (MIC) worked out at 3.4 µg/mL (≈ 6.43 µM) in the data set on Staphylococcus aureus [6], 2 µg/mL (≈ 3.78 µM) with Staphylococcus aureus [10], 0.088 µg/mL (≈ 0.166 µM) against Staphylococcus aureus [15] and 0.11 µg/mL (≈ 0.208 µM) in the data set on Staphylococcus aureus [16]. Moreover, the MIC90 (usually an inhibitory concentration at the 90% level, which refers to growth in some studies and to a panel of isolates in others) in the data set with Staphylococcus aureus [7] is 0.125 µg/mL (≈ 0.236 µM); against Streptococcus pyogenes, 0.25 to 0.5 µg/mL (≈ 0.473 to 0.946 µM). Moreover, the clearance was found to be 30.9 mL/min/kg in [11] and 13.7 mL/min/kg in data set [18].

As to `COc1ccc2ncc(F)c([C@@H](O)CC[C@@H]3CCN(C4CC(c5ccccc5)C4)C[C@@H]3C(=O)O)c2c1` (some centres not stated), the half-life in data set [1] was 68.4 min; in data set [13], 40.2 min. In addition, the results for the pIC50 in data set [2], in data set [3] and in data set [9] were 4.65, 4.80 and 5.94, respectively. Further, the unbound share (fraction unbound) is 0.122 to 0.211 in data set [4], 0.277 to 0.334 in [8] and 0.15 to 0.158 in data set [14]. Also, the Vd in data set [5] came to 1.01 L/kg; in [17], 1.82 L/kg. The minimal inhibitory concentration (MIC) came to 22.6 µg/mL (≈ 45.9 µM) in the data set on Staphylococcus aureus [6], 8 µg/mL (≈ 16.2 µM) with Staphylococcus aureus [10], 0.069 µg/mL (≈ 0.14 µM) against Staphylococcus aureus [15] and 0.125 µg/mL (≈ 0.254 µM) with Staphylococcus aureus [16]. The MIC90 with Staphylococcus aureus [7] stood at 0.25 µg/mL (≈ 0.508 µM); in the data set on Streptococcus pyogenes it was 1 µg/mL (≈ 2.03 µM). Besides, the clearance came out at 18.4 mL/min/kg in [11] and 17.3 mL/min/kg in [18]. Moreover, the Activity in the data set on Staphylococcus aureus [12] was determined as 92.1 mg/kg/day.

`O=c1ccc2ncc(=O)n3c2n1C[C@H]3CN1CCC(NCc2cc3c(cn2)OCCC3)CC1` [GEPOTIDACIN] gave a negative-log IC50 (pIC50) in [2] of 2.88. In addition, the Cmax (as a rule, the highest concentration seen after dosing) in data set [24] lay within 7000 to 13000 ng/mL. In [21], the Ratio turned out to be 13.4. This compound displayed a minimum inhibitory concentration (MIC) against Staphylococcus aureus [6] of 8 to 32 µg/mL (≈ 17.8 to 71.3 µM).
